Structures can show the parent of a compound that is named as a salt.
Test system: IL-2 production
Assay: Inhibition of IL-2 production in PHA-activated Jurkat cells (ELISA)
Type: cell-based
Settings: PHA 2.5 μg/mL, IL-2 ELISA
Procedure: Jurkat cells were placed in a 96 well plate (0.5 million cells per well in 1% FBS medium) then a test compound of this invention was added at different concentrations. After 10 minutes, the cells were activated with PHA (final concentration 2.5 μg/mL) and incubated for 20 hours at 37° C. under CO2. The final volume was 200 μL. Following incubation, the cells were centrifuged and the supernatants collected and stored at −70° C. prior to assaying for IL-2 production. A commercial ELISA kit (IL-2 Eli-pair, Diaclone Research, Besancon, France) was used to detect production of IL-2, from which dose response curves were obtained. The IC50 value was calculated as the concentration at which 50% of maximum IL-2 production after stimulation was inhibited versus a non-stimulation control.

IC50 (Homo sapiens, Jurkat, 20 h) [nM]	Structure (SMILES)	further results
> 1000	O=C(Nc1ccc(C2=C(CO)CCCCC2)cc1)c1c(F)cccc1F [Compound 36, 2,6-Difluoro-N-[4-(2-hydroxymethyl-cyclohept-1-enyl)-phenyl]-benzamide]	
774	O=CC1=C(c2ccc(NC(=O)c3c(F)cccc3F)cc2)CCCCC1 [Compound 37, 2,6-Difluoro-N-[4-(2-formyl-cyclohept-1-enyl)-phenyl]-benzamide]	
23.1	O=C(Nc1ccc(C2=C(c3cnco3)CCCCC2)cc1)c1c(F)cccc1F [Compound 38]	
380	CCOC(=O)C1=C(c2ccc(NC(=O)c3c(F)cccc3F)cc2)CCN(C(=O)OC)CC1 [Compound 39, 2,6-Difluoro-N-[4-(1-methoxycarboxyl-5-ethoxycarbonyl-2,3,6,7-tetrahydro-1H-azepin-4-yl)-phenyl]-benzamide]	
22.8	C=CC1=C(c2ccc(NC(=O)c3c(F)cccc3F)cc2)CCN(C(=O)OC)CC1 [Compound 40, 2,6-Difluoro-N-[4-(1-methoxycarbonyl-5-vinyl-2,3,6,7-tetrahydro-1H-azepin-4-yl)-phenyl]-benzamide]	
308	COC(=O)N1CCC(c2nccs2)=C(c2ccc(NC(=O)c3c(F)cccc3F)cc2)C1 [Compound 41, 2,6-Difluoro-N-[4-(1-methoxycarbonyl-4-thiazol-2-yl-1,2,5,6-tetrahydro-pyridin-3-yl)-phenyl]-benzamide]	
11.9	COC(=O)N1CCC(C(C)C)=C(c2ccc(NC(=O)c3c(F)cccc3F)cc2)C1 [Compound 42, 2,6-Difluoro-N-[4-(1-methoxycarbonyl-4-isopropyl-1,2,5,6-tetrahydro-pyridin-3-yl)-phenyl]-benzamide]	
12	CC1=C(c2ccc(NC(=O)c3c(F)cccc3F)cc2)CN(c2nccs2)CC1 [Compound 44, 2,6-Difluoro-N-[4-(1-thiazol-2-yl-4-methyl-1,2,5,6-tetrahydro-pyridin-3-yl)-phenyl]-benzamide]	
248	COC(=O)N1CCC(C)=C(c2ccc(NC(=O)c3ccncc3F)cc2)C1 [Compound 45, N-[4-(1-methoxycarbonyl-4-methyl-1,2,5,6-tetrahydro-pyridin-3-yl)-phenyl]-3-fluoro-isonicotinamide]	
411	CCOC(=O)N1CCC(C)=C(c2ccc(NC(=O)c3snnc3C)cc2)C1 [Compound 47, 4-Methyl-[1,2,3]thiadiazole-5-carboxylic acid [4-(1-ethoxycarbonyl-4-methyl-1,2,5,6-tetrahydro-pyridin-3-yl)-phenyl]-amide]	
156	CCOC(=O)N1CCC(C)=C(c2ccc(NC(=O)c3ccncc3C)cc2)C1 [Compound 48, N-[4-(1-ethoxycarbonyl-4-methyl-1,2,5,6-tetrahydro-pyridin-3-yl)-phenyl]-3-methyl-isonicotinamide]	
16.2	COC(=O)N1CCC(C)=C(c2ccc(NC(=O)c3c(F)cccc3F)cc2)C1 [Compound 49, 2,6-Difluoro-N-[4-(1-methoxycarbonyl-4-methyl-1,2,5,6-tetrahydro-pyridin-3-yl)-phenyl]-benzamide]	
	CCOC(=O)N1CCC(C)=C(c2ccc(NC(=O)c3ccncc3C)cc2)C1 [Compound 50, N-[4-(1-ethoxycarbonyl-4-methyl-1,2,5,6-tetrahydro-pyridin-3-yl)-phenyl]-3-methyl-isonicotinamide, hydrochloride]	IC50 (20 hours, hydrochloride): 177 nM
153	CC1=C(c2ccc(NC(=O)c3ccncc3C)cc2)CN(C(=O)OCc2ccccc2)CC1 [Compound 51, N-[4-(1-benzyloxycarbonyl-4-methyl-1,2,5,6-tetrahydro-pyridin-3-yl)-phenyl]-3-methyl-isonicotinamide]	
651	CC1=C(c2ccc(NC(=O)c3ccncc3F)cc2)CN(C(=O)Oc2ccc([N+](=O)[O-])cc2)CC1 [Compound 52, N-{4-[1-(4-nitro-phenyloxycarbonyl)-4-methyl-1,2,5,6-tetrahydro-pyridin-3-yl]-phenyl}-3-fluoro-isonicotinamide]	
81.3	C=CCOC(=O)N1CCC(C)=C(c2ccc(NC(=O)c3ccncc3F)cc2)C1 [Compound 53, N-[4-(1-allyloxycarbonyl-4-methyl-1,2,5,6-tetrahydro-pyridin-3-yl)-phenyl]-3-fluoro-isonicotinamide]	
235	C=CCOC(=O)N1CCC(c2ccc(NC(=O)c3c(F)cccc3F)cc2)=C(C)C1 [Compound 54, 2,6-Difluoro-N-[4-(1-allyloxycarbonyl-3-methyl-1,2,5,6-tetrahydro-pyridin-4-yl)-phenyl]-benzamide]	
941	CC1=C(c2ccc(NC(=O)c3c(F)cccc3F)cc2)CCN(C(=O)Oc2ccccc2)C1 [Compound 55, 2,6-Difluoro-N-[4-(1-phenyloxycarbonyl-3-methyl-1,2,5,6-tetrahydro-pyridin-4-yl)-phenyl]-benzamide]	
> 1000	CCOC(=O)C1=C(c2ccc(NC(=O)c3c(F)cccc3F)cc2)CCN(C#N)C1 [Compound 56, 2,6-Difluoro-N-[4-(1-cyano-3-ethoxycarbonyl-1,2,5,6-tetrahydro-pyridin-4-yl)-phenyl]-benzamide]	

IC50 (Homo sapiens, Jurkat, 20 h) [nM]	Structure (SMILES)	further results
> 1000	CC1=C(c2ccc(NC(=O)c3ccncc3F)cc2)CN(C#N)CC1 [Compound 57]	
> 1000	CC1=C(c2ccc(NC(=O)c3c(F)cccc3F)cc2)CN(C#N)CC1 [Compound 58, 2,6-Difluoro-N-[4-(1-cyano-4-methyl-1,2,5,6-tetrahydro-pyridin-3-yl)-phenyl]-benzamide]	
48.9	CC1=C(c2ccc(NC(=O)c3ccncc3C)cc2)CN(c2nccs2)CC1 [Compound 59, N-[4-(1-thiazol-2-yl-4-methyl-1,2,5,6-tetrahydro-pyridin-3-yl)-phenyl]-3-methyl-isonicotinamide]	
229	CCS(=O)(=O)N1CCC(C)=C(c2ccc(NC(=O)c3ccncc3C)cc2)C1 [Compound 60, N-[4-(1-ethanesulfonyl-4-methyl-1,2,5,6-tetrahydro-pyridin-3-yl)-phenyl]-3-methyl-isonicotinamide]	
164	CC1=C(c2ccc(NC(=O)c3ccncc3C)cc2)CN(S(=O)(=O)c2ccccc2)CC1 [Compound 61, N-[4-(1-phenylsulfonyl-4-methyl-1,2,5,6-tetrahydro-pyridin-3-yl)-phenyl]-3-methyl-isonicotinamide]	
431	CC(=O)N1CCC(C)=C(c2ccc(NC(=O)c3c(F)cccc3F)cc2)C1 [Compound 62, 2,6-Difluoro-N-[4-(1-acetyl-4-methyl-1,2,5,6-tetrahydro-pyridin-3-yl)-phenyl]-benzamide]	
182	CC1=C(c2ccc(NC(=O)c3c(F)cccc3F)cc2)CN(C(=O)C2CC2)CC1 [Compound 63, 2,6-Difluoro-N-[4-(1-cyclopropylcarbonyl-4-methyl-1,2,5,6-tetrahydro-pyridin-3-yl)-phenyl]-benzamide]	
962	CC1=C(c2ccc(NC(=O)c3c(F)cccc3F)cc2)CN(C(=O)c2cccnc2)CC1 [Compound 64]	
7.7	CC1=C(c2ccc(NC(=O)c3ccncc3F)cc2)CN(c2nccs2)CC1 [Compound 65, N-[4-(1-thiazol-2-yl-4-methyl-1,2,5,6-tetrahydro-pyridin-3-yl)-phenyl]-3-fluoro-isonicotinamide]	
42.1	CC1=C(c2ccc(NC(=O)c3ccncc3F)cc2)CN(c2ccccn2)CC1 [Compound 66, N-[4-(1-pyridin-2-yl-4-methyl-1,2,5,6-tetrahydro-pyridin-3-yl)-phenyl]-3-fluoro-isonicotinamide]	
95.3	CC1=C(c2ccc(NC(=O)c3c(F)cccc3F)cc2)CN(c2nc3ccccc3o2)CC1 [Compound 68, 2,6-Difluoro-N-[4-(1-benzooxazol-2-yl-4-methyl-1,2,5,6-tetrahydro-pyridin-3-yl)-phenyl]-benzamide]	
> 1000	CC1=C(c2ccc(NC(=O)c3ccncc3F)cc2)CN(CC2CC2)CC1 [Compound 69, N-[4-(1-cyclopropylmethyl-4-methyl-1,2,5,6-tetrahydro-pyridin-3-yl)-phenyl]-3-fluoro-isonicotinamide]	
12.4	CC1=C(c2ccc(NC(=O)c3c(F)cccc3F)cc2)CN(c2ncco2)CC1 [Compound 70, 2,6-Difluoro-N-[4-(1-oxazol-2-yl-4-methyl-1,2,5,6-tetrahydro-pyridin-3-yl)-phenyl]-benzamide]	
44	CC1=C(c2ccc(NC(=O)c3ccncc3F)cc2)CN(c2ncco2)CC1 [Compound 71, N-[4-(1-oxazol-2-yl-4-methyl-1,2,5,6-tetrahydro-pyridin-3-yl)-phenyl]-3-fluoro-isonicotinamide]	
35	CC1=C(c2ccc(NC(=O)c3c(F)cccc3F)nc2)CN(c2nccs2)CC1 [Compound 72, 2,6-Difluoro-N-[5-(1-thiazol-2-yl-4-methyl-1,2,5,6-tetrahydro-pyridin-3-yl)-pyridin-2-yl]-benzamide, hydrochloride]	
456	CC1=C(c2ccc(NC(=O)c3c(F)cccc3F)cc2)CN(C(N)=S)CC1 [Compound 73, 2,6-Difluoro-N-[4-(1-thiocarbamoyl-4-methyl-1,2,5,6-tetrahydro-pyridin-3-yl)-phenyl]-benzamide]	
	CC1=C(c2ccc(NC(=O)c3ccncc3F)cc2)CN(c2nccs2)CC1 [Compound 74, N-[4-(1-thiazol-2-yl-4-methyl-1,2,5,6-tetrahydro-pyridin-3-yl)-phenyl]-3-fluoro-isonicotinamide, dihydrochloride]	IC50 (20 hours, dihydrochloride): 5 nM
	CC1=C(c2ccc(NC(=O)c3c(F)cccc3F)cc2)CN(c2nccs2)CC1 [Compound 75, 2,6-Difluoro-N-[4-(1-thiazol-2-yl-4-methyl-1,2,5,6-tetrahydro-pyridin-3-yl)-phenyl]-benzamide, hydrochloride]	IC50 (20 hours, hydrochloride): 11 nM

Source: patent US7816535B2, “Vinyl-phenyl derivatives for inflammation and immune-related uses” (Synta Pharmaceuticals Corp., priority 2006, dated 2010)
